Source: ChEMBL document CHEMBL4396868, “Discovery of Potent, Selective, and Brain-Penetrant 1 H-Pyrazol-5-yl-1 H-pyrrolo[2,3- b]pyridines as Anaplastic Lymphoma Kinase (ALK) Inhibitors” (J Med Chem, 2019)
The source made the active and inactive calls. The calls are words filed in the database; no cut-off is given here.

What was measured:
[1] = biological target: Insulin receptor (Homo sapiens) (UniProt P06213); assay: Inhibition of IRK (unknown origin) at 100 nM by [gamma-33P]ATP-based radiometric or Alphascreen assay relative to control
[2] = Drug level in Jcl-ICR mouse brain at 100 mg/kg, ip measured at 0.5 hrs by LC/MS/MS analysis; type: ADME, organism-based; conditions: read-out: Drug uptake
[3] = Drug level in Jcl-ICR mouse plasma at 100 mg/kg, ip measured at 0.5 hrs by LC/MS/MS analysis; type: ADME, organism-based
[4] = biological target: Protein kinase C theta type (Homo sapiens) (UniProt Q04759); assay: (§1) Inhibition of N-terminal FLAG-tagged PKCtheta (unknown origin) expressed in baculovirus expression system at 100 nM using pGS peptide as substrate preincubated for 5 mins followed by [gamma-33P]ATP addition and measured after 30 mins by topcount scintillation counting method relative to control
[5] = Brain to plasma partition coefficient, Kp of the compound in Jcl-ICR mouse at 100 mg/kg, ip measured at 0.5 hrs by LC/MS/MS analysis; type: ADME, organism-based
[6] = Drug level in Jcl-ICR mouse plasma at 100 mg/kg, ip measured at 1 hr by LC/MS/MS analysis; type: ADME, organism-based
[7] = biological target: Hepatocyte growth factor receptor (Homo sapiens) (UniProt P08581); assay: Inhibition of recombinant human N-terminal GST-fused/His6-tagged c-MET (956 to 1390 residues) expressed in baculovirus infected Spodoptera frugiperda cells at 100 nM preincubated for 5 mins followed by ATP addition and measured after 10 mins by alphascreen assay relative to control
[8] = biological target: Casein kinase I isoform delta (Homo sapiens) (UniProt P48730); assay: Inhibition of CK1delta (unknown origin) at 100 nM by [gamma-33P]ATP-based radiometric or Alphascreen assay relative to control
Focal adhesion kinase 1 [9] = biological target: T1, Focal adhesion kinase 1 (Homo sapiens, UniProt Q05397); assay: Inhibition of full-length N-terminal FLAG-tagged FAK (unknown origin) expressed in baculovirus expression system at 100 nM preincubated for 5 mins followed by ATP addition and measured after 60 mins by alphascreen assay relative to control
[10] = Unbound brain-to-plasma concentration ratio in Jcl-ICR mouse at 100 mg/kg, ip measured at 1 hr by LC/MS/MS analysis; type: ADME, organism-based; conditions: read-out: K(p,uu,brain)
[11] = biological target: Mitogen-activated protein kinase 14 (Homo sapiens) (UniProt Q16539); assay: as §1, with “p38alpha” for “PKCtheta”, “myelin basic protein” for “pGS peptide”, “60” for “30”
Focal adhesion kinase 1 [12] = biological target: T1, Focal adhesion kinase 1; assay: Inhibition of human FAK kinase domain (411 to 686 residues) expressed in baculovirus expression system using biotin-poly-GT as substrate pre-incubated for 10 mins followed by ATP addition and measured after 60 mins by HTRF method
[13] = biological target: Rho-associated protein kinase 1 (Homo sapiens) (UniProt Q13464); assay: Inhibition of ROCK1 (unknown origin) at 100 nM by [gamma-33P]ATP-based radiometric or Alphascreen assay relative to control
Mus musculus = assay: In-vivo inhibition of ALK in ICR mouse prefrontal cortex assessed as reduction in phosphorylated ALK level at 100 mg/kg, ip after 1 hr by Western blot analysis; type: functional, organism-based
[14] = biological target: MAP kinase-activated protein kinase 2 (Homo sapiens) (UniProt P49137); assay: Inhibition of MAPKAPK2 (unknown origin) at 100 nM by [gamma-33P]ATP-based radiometric or Alphascreen assay relative to control
[15] = Unbound brain-to-plasma concentration ratio in Jcl-ICR mouse at 100 mg/kg, ip measured at 0.5 hrs by LC/MS/MS analysis; type: ADME, organism-based; conditions: read-out: K(p,uu,brain)
Homo sapiens = species: Homo sapiens; assay: Selectivity ratio of IC50 for human FAK kinase domain (411 to 686 residues) expressed in baculovirus expression system to IC50 for human ALK kinase domain (1058 to 1620 residues) expressed in baculovirus expression system
[16] = biological target: Serine/threonine-protein kinase PLK1 (Homo sapiens) (UniProt P53350); assay: Inhibition of N-terminal FLAG-tagged PLK1 (unknown origin) expressed in baculovirus expression system at 100 nM using alpha-casein as substrate preincubated for 5 mins followed by [gamma-33P]ATP addition and measured after 40 mins by topcount scintillation counting method relative to control
[17] = biological target: ALK tyrosine kinase receptor (Homo sapiens, UniProt Q9UM73); type: cell-based, HEK293
Description: Inhibition of recombinant human ALK expressed in HEK293 cells assessed as reduction in ALK autophosphorylation at Tyr1604 residue incubated for 60 mins by sandwich ELISA

[18] = biological target: Mitogen-activated protein kinase 3 (Homo sapiens) (UniProt P27361); assay: Inhibition of N-terminal FLAG-tagged ERK1 (unknown origin) expressed in baculovirus expression system at 100 nM using myelin basic protein as substrate preincubated for 5 mins followed by [gamma-33P]ATP addition and measured after 60 mins by topcount scintillation counting method relative to control
[19] = biological target: Interleukin-1 receptor-associated kinase 4 (Homo sapiens) (UniProt Q9NWZ3); assay: Inhibition of IRAK4 (unknown origin) at 100 nM by [gamma-33P]ATP-based radiometric or Alphascreen assay relative to control
[20] = Drug level in Jcl-ICR mouse brain at 100 mg/kg, ip measured at 1 hr by LC/MS/MS analysis; type: ADME, organism-based; conditions: read-out: Drug uptake
[21] = Brain to plasma partition coefficient, Kp of the compound in Jcl-ICR mouse at 100 mg/kg, ip measured at 1 hr by LC/MS/MS analysis; type: ADME, organism-based
[22] = biological target: Cell division cycle 7-related protein kinase (Homo sapiens) (UniProt O00311); assay: Inhibition of CDC7 (unknown origin) at 100 nM by [gamma-33P]ATP-based radiometric or Alphascreen assay relative to control
[23] = biological target: Dual specificity mitogen-activated protein kinase kinase 1 (Homo sapiens) (UniProt Q02750); assay: Inhibition of N-terminal GST-fused MEK1 (unknown origin) expressed in FreeStyle 293 cells at 100 nM using GST-ERK1(K71A) as substrate preincubated for 5 mins followed by [gamma-33P]ATP addition and measured after 20 mins by topcount scintillation counting method relative to control
[24] = Unbound brain-to-plasma concentration ratio in Jcl-ICR mouse at 100 mg/kg, ip measured at 2 hrs by LC/MS/MS analysis; type: ADME, organism-based; conditions: read-out: K(p,uu,brain)
MDR1 (ABCB1, P-gp) = MDR1 (ABCB1, P-gp) (Homo sapiens, UniProt P08183); assay: Substrate activity at human MDR1 expressed in pig LLC-PK1 cells assessed as efflux ratio of apparent permeability across basolateral to apical over apical to basolateral side at 10 uM after 2 hrs by LC/MS/MS analysis; type: ADME, cell-based
[25] = biological target: Cyclin-dependent kinase 2 (Homo sapiens) (UniProt P24941); assay: Inhibition of CDK2 (unknown origin) at 100 nM by [gamma-33P]ATP-based radiometric or Alphascreen assay relative to control
[26] = Fraction unbound in ICR mouse plasma at 1 umol/L measured for 20 hrs by equilibrium dialysis based LC-MS/MS analysis; type: ADME, cell-free; conditions: 1 µM
[27] = Brain to plasma partition coefficient, Kp of the compound in Jcl-ICR mouse at 100 mg/kg, ip measured at 2 hrs by LC/MS/MS analysis; type: ADME, organism-based

Cell division cycle 7-related protein kinase (Homo sapiens), sequence (O00311 whole entry, looked up, the tested form may be a part): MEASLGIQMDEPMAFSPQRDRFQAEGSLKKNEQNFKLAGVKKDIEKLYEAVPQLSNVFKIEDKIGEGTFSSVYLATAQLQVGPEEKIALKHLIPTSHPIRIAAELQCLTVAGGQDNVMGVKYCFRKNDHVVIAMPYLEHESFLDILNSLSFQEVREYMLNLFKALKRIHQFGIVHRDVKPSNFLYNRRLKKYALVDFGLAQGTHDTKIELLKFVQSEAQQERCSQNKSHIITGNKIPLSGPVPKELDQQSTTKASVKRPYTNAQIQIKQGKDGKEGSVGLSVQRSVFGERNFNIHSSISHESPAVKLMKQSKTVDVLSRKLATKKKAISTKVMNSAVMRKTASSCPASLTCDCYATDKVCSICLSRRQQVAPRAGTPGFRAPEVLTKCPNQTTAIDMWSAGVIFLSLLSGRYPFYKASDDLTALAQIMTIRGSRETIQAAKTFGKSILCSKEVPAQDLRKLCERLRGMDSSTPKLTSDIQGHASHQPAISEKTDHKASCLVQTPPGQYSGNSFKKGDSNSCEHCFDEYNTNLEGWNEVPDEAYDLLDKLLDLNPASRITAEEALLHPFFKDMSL
Hepatocyte growth factor receptor (Homo sapiens), sequence (P08581 whole entry, the tested form may be a part, canonical isoform): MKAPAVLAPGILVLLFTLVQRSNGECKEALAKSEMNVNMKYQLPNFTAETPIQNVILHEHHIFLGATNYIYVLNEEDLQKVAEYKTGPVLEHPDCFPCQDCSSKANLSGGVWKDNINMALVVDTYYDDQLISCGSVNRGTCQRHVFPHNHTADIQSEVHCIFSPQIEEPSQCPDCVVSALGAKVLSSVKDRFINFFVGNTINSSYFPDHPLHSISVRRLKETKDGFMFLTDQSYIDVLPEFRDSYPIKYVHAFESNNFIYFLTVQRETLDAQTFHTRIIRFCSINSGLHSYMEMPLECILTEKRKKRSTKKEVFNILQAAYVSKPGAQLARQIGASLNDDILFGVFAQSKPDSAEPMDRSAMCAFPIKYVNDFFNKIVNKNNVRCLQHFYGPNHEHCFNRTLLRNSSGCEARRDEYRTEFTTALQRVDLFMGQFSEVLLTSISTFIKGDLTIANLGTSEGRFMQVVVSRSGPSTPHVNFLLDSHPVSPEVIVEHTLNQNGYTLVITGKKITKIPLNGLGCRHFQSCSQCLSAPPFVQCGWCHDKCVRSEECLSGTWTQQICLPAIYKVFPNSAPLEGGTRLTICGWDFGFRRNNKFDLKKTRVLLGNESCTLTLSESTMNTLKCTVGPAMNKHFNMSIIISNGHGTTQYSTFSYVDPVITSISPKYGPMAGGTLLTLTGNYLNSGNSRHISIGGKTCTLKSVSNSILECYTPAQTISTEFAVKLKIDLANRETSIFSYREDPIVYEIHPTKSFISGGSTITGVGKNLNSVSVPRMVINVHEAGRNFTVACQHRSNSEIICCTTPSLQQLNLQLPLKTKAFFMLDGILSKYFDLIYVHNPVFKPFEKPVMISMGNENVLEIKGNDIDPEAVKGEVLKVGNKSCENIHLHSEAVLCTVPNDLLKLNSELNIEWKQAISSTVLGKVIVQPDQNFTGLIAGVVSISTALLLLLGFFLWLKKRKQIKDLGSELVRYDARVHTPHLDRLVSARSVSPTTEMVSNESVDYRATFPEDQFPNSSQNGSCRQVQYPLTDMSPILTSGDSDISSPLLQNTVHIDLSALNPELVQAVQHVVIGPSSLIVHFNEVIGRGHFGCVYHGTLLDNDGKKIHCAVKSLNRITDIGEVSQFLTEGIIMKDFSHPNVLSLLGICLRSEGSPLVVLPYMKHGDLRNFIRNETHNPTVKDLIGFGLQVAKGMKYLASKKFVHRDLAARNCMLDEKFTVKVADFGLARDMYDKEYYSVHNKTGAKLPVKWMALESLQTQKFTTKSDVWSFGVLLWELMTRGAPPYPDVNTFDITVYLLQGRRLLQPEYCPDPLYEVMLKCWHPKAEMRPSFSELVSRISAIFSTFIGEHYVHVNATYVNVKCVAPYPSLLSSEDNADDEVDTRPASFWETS
ALK tyrosine kinase receptor, sequence (Q9UM73 whole entry): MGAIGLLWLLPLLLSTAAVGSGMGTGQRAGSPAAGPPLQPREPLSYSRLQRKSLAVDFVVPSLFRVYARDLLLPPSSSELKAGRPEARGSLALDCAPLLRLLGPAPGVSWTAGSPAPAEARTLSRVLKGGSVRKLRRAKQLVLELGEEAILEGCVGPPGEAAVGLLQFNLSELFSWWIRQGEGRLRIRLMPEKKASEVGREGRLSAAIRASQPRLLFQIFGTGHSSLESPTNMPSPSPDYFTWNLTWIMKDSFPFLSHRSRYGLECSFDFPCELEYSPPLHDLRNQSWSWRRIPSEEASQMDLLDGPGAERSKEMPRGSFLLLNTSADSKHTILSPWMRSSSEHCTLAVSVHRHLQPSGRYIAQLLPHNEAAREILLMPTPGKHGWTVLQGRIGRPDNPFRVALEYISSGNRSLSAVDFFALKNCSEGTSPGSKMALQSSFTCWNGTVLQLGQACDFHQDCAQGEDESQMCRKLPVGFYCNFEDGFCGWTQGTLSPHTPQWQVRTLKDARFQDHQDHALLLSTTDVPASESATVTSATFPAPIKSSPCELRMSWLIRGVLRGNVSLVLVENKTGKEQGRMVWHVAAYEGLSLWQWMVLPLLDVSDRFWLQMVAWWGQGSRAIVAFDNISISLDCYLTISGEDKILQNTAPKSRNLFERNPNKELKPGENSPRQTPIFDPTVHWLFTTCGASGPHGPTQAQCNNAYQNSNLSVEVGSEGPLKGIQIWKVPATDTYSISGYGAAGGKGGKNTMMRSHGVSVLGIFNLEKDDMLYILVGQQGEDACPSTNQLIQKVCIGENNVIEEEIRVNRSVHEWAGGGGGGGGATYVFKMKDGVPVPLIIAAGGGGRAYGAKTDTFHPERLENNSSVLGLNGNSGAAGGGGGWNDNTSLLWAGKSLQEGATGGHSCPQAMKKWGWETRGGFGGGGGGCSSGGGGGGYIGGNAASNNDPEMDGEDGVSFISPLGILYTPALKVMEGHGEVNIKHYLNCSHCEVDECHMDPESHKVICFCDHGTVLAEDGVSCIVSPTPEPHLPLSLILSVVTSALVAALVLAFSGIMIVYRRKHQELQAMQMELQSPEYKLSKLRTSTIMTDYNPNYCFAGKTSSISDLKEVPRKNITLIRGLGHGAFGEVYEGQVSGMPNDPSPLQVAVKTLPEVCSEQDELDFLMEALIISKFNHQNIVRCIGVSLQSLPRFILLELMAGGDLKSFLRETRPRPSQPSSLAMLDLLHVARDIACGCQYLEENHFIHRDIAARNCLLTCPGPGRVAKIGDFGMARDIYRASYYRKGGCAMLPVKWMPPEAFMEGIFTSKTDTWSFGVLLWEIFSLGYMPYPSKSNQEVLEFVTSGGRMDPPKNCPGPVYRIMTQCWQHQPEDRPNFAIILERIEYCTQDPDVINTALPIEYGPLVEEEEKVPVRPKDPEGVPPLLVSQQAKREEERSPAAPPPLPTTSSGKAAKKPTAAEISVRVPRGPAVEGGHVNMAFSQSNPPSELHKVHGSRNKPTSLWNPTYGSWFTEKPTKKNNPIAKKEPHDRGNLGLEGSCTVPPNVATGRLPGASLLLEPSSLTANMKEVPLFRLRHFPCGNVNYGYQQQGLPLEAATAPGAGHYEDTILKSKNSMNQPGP
Casein kinase I isoform delta (Homo sapiens), sequence (P48730 whole entry, looked up, canonical isoform): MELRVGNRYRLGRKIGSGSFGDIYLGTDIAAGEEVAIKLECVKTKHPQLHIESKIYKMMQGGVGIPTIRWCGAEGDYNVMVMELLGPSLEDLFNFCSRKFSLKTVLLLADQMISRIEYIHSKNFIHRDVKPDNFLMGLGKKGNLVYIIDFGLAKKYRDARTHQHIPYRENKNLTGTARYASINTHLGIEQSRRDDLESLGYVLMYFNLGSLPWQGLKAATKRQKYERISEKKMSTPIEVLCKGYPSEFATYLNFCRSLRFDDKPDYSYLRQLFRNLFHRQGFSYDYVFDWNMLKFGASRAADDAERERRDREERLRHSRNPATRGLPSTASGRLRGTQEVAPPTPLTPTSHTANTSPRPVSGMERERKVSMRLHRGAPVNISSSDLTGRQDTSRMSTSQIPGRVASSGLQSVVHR
Dual specificity mitogen-activated protein kinase kinase 1 (Homo sapiens), sequence (Q02750 whole entry, the tested form may be a part): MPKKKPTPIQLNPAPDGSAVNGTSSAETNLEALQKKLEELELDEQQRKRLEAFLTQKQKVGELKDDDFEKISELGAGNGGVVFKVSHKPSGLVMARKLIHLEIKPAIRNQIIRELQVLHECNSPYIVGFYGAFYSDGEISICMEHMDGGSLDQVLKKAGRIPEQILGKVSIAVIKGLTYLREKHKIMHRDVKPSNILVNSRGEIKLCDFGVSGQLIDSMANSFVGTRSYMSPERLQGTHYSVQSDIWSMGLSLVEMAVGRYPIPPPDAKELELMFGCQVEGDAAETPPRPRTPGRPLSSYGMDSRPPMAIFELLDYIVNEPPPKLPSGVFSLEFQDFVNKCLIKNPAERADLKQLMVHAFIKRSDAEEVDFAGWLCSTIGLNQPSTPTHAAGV
Mitogen-activated protein kinase 3 (Homo sapiens), sequence (P27361 whole entry): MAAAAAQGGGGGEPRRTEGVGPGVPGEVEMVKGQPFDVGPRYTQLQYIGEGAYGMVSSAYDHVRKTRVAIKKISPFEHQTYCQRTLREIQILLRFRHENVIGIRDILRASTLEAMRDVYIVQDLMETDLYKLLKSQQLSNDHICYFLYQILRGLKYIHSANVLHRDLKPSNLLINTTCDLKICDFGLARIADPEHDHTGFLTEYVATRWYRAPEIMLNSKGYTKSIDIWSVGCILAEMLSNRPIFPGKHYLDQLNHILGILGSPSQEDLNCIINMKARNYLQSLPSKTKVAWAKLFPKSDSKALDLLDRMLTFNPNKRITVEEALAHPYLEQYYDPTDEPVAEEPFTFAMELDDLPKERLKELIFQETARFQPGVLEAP

In the case of `Cc1cc(-n2cc(C(=O)N3CCO[C@@H](C)C3)c3ccc(O[C@@H](C)c4ccc(F)cn4)nc32)n[nH]1`, the inhibition [1] is reported as 2%, the concentration at 0.5 h [2] is reported as 33000 ng/mL and the concentration at 0.5 h [3] is reported as 26200 ng/mL. The inhibition [4] was 2%, the Kp at 0.5 h [5] was 1.26 and the concentration at 1 h [6] was 26200 ng/mL. It also gave an inhibition [7] of -5%, an inhibition [8] of 6% and an inhibition (Focal adhesion kinase 1 [9]) of 83%. For the same compound, the Kp uu at 1 h [10] was 0.27, the inhibition [11] was -4% and the IC50 (Focal adhesion kinase 1 [12]) was 25 nM. The inhibition [13] was -5%, the inhibition (Mus musculus) was “Active” and the inhibition [14] was 3%. The Kp uu at 0.5 h [15] was 0.27, the Ratio IC50 (Homo sapiens) was 10 and the inhibition [16] was 5%. For the same compound, the IC50 [17] was 27 nM, the inhibition [18] was 3% and the inhibition [19] was -7%. The concentration at 1 h [20] was 33400 ng/mL, the Kp at 1 h [21] was 1.28 and the inhibition [22] was -2%. For the same compound, the inhibition [23] was -1%, the Kp uu at 2 h [24] was 0.11 and the efflux ratio at 2 h, 10 µM (MDR1 (ABCB1, P-gp)) was 1. For the same compound, the inhibition [25] was 5%, the Fu [26] was 0.08% and the Kp at 2 h [27] was 0.515.
